The values below come from US20250114367A1, “METHOD OF TREATING HAIR LOSS DISORDERS” (Sun Pharmaceutical Industries, Inc., priority 2023, published 2025).

In data set [1] the test system is adult subjects with moderate to severe AA. The experiment in a line: Phase III trial: Patient Global Impression of Severity (PGI-S). The class given is in vivo, human. As to the method:
The PGI-S was assessed by the subject and considered the severity of his/her alopecia areata at the time of assessment. The subject selected 1 of 7 numeric choices representing “Among the most extreme hair loss” to “Normal, no hair loss.” The definitions of the numeric choices is as follows: 1=normal, no hair loss; 2=borderline hair loss; 3=mild hair loss; 4=moderately hair loss; 5=marked hair loss; 6=severe hair loss; 7=among the most extreme hair loss.
A Phase III trial was conducted to assess the efficacy and safety of CTP-543 in adult subjects with moderate to severe AA. Approximately 440 adult male and female subjects 18 to 65 years of age, inclusive, with moderate to severe AA participated in the study. Subjects with definitive diagnosis of AA, and at least 50% hair loss, as defined by a SALT score ≥50, who met all of the inclusion criteria and none of the exclusion criteria participated in the study.
(§1) The Screening Period lasted up to 28 days prior to initiation of study drug. […] Randomization was stratified by scalp hair loss into 1 of the following 2 categories: 1) partial scalp hair loss (SALT ≥50 and <95), 2) complete or near complete scalp hair loss (SALT ≥95).
(§2) Additional secondary efficacy endpoints included the following: • Relative change in SALT scores from baseline at Weeks 4, 8, 12, 16, 20, and 24. • Percentage of responders (defined as “much improved” or “very much improved”) using the Clinical Global Impression of Improvement (CGI-I) at Weeks 12, 16, 20, and 24. • Percentage of responders (defined as “much improved” or “very much improved”) using the Patient Global Impression of Improvement (PGI-I) at Weeks 12, 16, 20, and 24. • Change from baseline in the Clinical Global Impression of Severity (CGI-S) at Weeks 12, 16, 20, and 24. • Change from baseline in the Patient Global Impression of Severity (PGI-S) at Weeks 12, 16, 20, and 24. • Change from baseline on the Brigham Eyebrow Tool for Alopecia (BETA) score at Weeks 12 and 24. • Change from baseline on the Brigham Eyelash Tool for Alopecia (BELA) score at Weeks 12 and 24. • Percentage of subjects achieving at least a 75% relative reduction in SALT score from baseline at Weeks 12 and 24. • Percentage of subjects achieving at least a 90% relative reduction in SALT score from baseline at Weeks 12 and 24. • Percentage of responders (defined as “satisfied” or “very satisfied”) on the SPRO scale at Weeks 12, 16, and 20. • Change from baseline in the SPRO scale at Weeks 12, 16, 20, and 24. • Percentage of subjects achieving a ≥2-point change from baseline in the SPRO scale at Weeks 12, 16, 20, and 24. • Change from baseline on the individual items of the Hair Quality Patient Reported Outcome (QPRO) scale at Weeks 12, 16, 20, and 24. • Change from baseline in the depression scale of the Hospital Anxiety and Depression Scale (HADS) at Week 24. • Change from baseline in the anxiety scale of the HADS at Week 24. • Percentage of subjects achieving an absolute SALT score of ≤20 at Week 4. • Percentage of subjects achieving an absolute SALT score of ≤10 at Week 24
A decrease from baseline indicates improvement (impression is decreased severity). The LS mean treatment group difference was in favor of the CTP-543 groups over the placebo group at all timepoints evaluated. […] Detailed data for each time point are described below.

Data set [2] has the same test system. Put plainly: Phase III trial: Hospital Anxiety and Depression Scale (HADS). The class given is in vivo, human. The note with it: for HADS anxiety scale, LS mean change from baseline / HADS anxiety scale, LS mean treatment group difference from placebo / HADS depression scale, LS mean change from baseline / HADS depression scale, LS mean treatment group difference from placebo: Week 24.
From the text: The Hospital Anxiety and Depression Scale (HADS) is used to measure anxiety and depression in a general medical population of subjects. HADS comprises of 14 items (7 items each for anxiety and depression), with a score ranging between 0 and 21 for the anxiety and depression subscales. Scores between 8 and 10 indicate a moderate presence of symptoms of anxiety and depression, whereas a score greater than 11 indicates a significant number of symptoms of anxiety and depression that likely correspond with a clinical diagnosis. The total HADS score may be regarded as a global measure of psychological distress (Roberts et al, 2001; Johnston et al, 2000). A negative change in a subject's HADS score from a starting timepoint to an end point during treatment, e.g. from baseline to Week 24 of treatment, indicates an improvement in symptoms of anxiety and depression. The HADS questionnaire was completed by subjects at baseline and Week 24. The term “baseline” as used herein refers to the HADS score (or HADS-A or HADS-D score) determined before administration of Compound (I).
Approximately 440 adult male and female subjects 18 to 65 years of age, inclusive, with moderate to severe AA participated in the study. Subjects with definitive diagnosis of AA, and at least 50% hair loss, as defined by a SALT score ≥50, who met all of the inclusion criteria and none of the exclusion criteria participated in the study.
as §1, §2
Changes from baseline to Week 24 in the depression scale of subjects who were randomized to treatment with deuruxolitinib 8 mg twice daily (BID), deuruxolitinib 12 mg BID, or placebo for 24 weeks were measured. Subjects completed the HADS 14-item questionnaire with 7 items for anxiety (HADS-A) and 7 items for depression (HADS-D).

The next data set has as its system plasma protein. Put plainly: Plasma protein binding of CTP-543 at 2 hours post-dose (renal impairment study). The format is in vitro ADME, human. The note with it: moderate renal impairment vs matched controls with normal renal function. From the text:
All subjects had samples collected for PK.

Regarding `[2H]C1([2H])C([C@@H](CC#N)n2cc(-c3ncnc4[nH]ccc34)cn2)C([2H])([2H])C([2H])([2H])C1([2H])[2H]` [CTP-543, (R)-3-(4-(7H-pyrrolo[2,3-d]pyrimidin-4-yl)-1H-pyrazol-1-yl)-3-(cyclopentyl-2,2,3,3,4,4,5,5-d8) propanenitrile], the “PGI-S, LS mean change from baseline” value is on record as −1.6 in data set [1] (Week 12, 8 mg BID); −1.8 in data set [1] (Week 12, 12 mg BID); −2.0 in data set [1] (Week 16, 12 mg BID); −2.0 in data set [1] (Week 20, 8 mg BID); −2.2 in data set [1] (Week 20, 12 mg BID); −2.2 in data set [1] (Week 24, 8 mg BID). Also, the “PGI-S, LS mean change from baseline” value in data set [1] (Week 24, 12 mg BID) is −2.5. In addition, the figures for the “HADS anxiety scale, LS mean change from baseline” value in data set [2] (8 mg BID) and in data set [2] (12 mg BID) were −1.1 and −0.9, respectively. For the same compound, the “HADS anxiety scale, LS mean treatment group difference from placebo” value in data set [2] (8 mg BID) came out at 0.5; in data set [2] (12 mg BID), 0.2. Also, the “HADS depression scale, LS mean change from baseline” value is reported as −1.2 in data set [2] (8 mg BID) and −1.5 in data set [2] (12 mg BID). For the same compound, the “HADS depression scale, LS mean treatment group difference from placebo” value in data set [2] (8 mg BID) was 0.8; in data set [2] (12 mg BID) it was 1.1. In data set [2] (baseline to Week 24, 8 mg BID), the “subjects achieving a ≥3-point improvement in the HADS-D score” value is given as 26.2%. Moreover, the “subjects achieving a ≥4-point improvement in the HADS-A score” value in data set [2] (baseline to Week 24, 8 mg BID) is listed as 18.9%. Also, the “differences in plasma protein binding between cohorts” value with plasma protein is recorded as “no meaningful differences”.
